Seven molecules from patent US9340590B2 (priority 2011, dated 2016) can be followed below.

What all share (test): cell-based
In one assay the target is hNav1.3 (Homo sapiens, UniProt Q9NY46). To be noted: IonWorks Quattro, read-out: IWQ Use Nav1.3.
For the next assay, the target named is hNav1.7 (Homo sapiens, UniProt Q15858). In kind it is cell-based. To be noted: IonWorks Quattro, read-out: IWQ Use Nav1.7.
The target in a further assay is hNav1.5 (Homo sapiens, UniProt Q14524). To be noted: IonWorks Quattro, read-out: IWQ Use Nav1.5. On the technique in general: In patch-clamp work, channel activity is measured electrically.

Where two headings read alike, the source gives them in different places. Positions of bridges follow the written chain, without caps; N, C: chain ends. Non-standard residues stand in square brackets, D forms with d. Residues, ends and D or L forms follow the SMILES beside them. Trp(1-Me) = Cn1cc(C[C@H](N)C(=O)O)c2ccccc21; Phe(4-I) = N[C@@H](Cc1ccc(I)cc1)C(=O)O; 1Nal = N[C@@H](Cc1cccc2ccccc12)C(=O)O

Sequence of hNav1.7 (Q15858 whole entry, looked up): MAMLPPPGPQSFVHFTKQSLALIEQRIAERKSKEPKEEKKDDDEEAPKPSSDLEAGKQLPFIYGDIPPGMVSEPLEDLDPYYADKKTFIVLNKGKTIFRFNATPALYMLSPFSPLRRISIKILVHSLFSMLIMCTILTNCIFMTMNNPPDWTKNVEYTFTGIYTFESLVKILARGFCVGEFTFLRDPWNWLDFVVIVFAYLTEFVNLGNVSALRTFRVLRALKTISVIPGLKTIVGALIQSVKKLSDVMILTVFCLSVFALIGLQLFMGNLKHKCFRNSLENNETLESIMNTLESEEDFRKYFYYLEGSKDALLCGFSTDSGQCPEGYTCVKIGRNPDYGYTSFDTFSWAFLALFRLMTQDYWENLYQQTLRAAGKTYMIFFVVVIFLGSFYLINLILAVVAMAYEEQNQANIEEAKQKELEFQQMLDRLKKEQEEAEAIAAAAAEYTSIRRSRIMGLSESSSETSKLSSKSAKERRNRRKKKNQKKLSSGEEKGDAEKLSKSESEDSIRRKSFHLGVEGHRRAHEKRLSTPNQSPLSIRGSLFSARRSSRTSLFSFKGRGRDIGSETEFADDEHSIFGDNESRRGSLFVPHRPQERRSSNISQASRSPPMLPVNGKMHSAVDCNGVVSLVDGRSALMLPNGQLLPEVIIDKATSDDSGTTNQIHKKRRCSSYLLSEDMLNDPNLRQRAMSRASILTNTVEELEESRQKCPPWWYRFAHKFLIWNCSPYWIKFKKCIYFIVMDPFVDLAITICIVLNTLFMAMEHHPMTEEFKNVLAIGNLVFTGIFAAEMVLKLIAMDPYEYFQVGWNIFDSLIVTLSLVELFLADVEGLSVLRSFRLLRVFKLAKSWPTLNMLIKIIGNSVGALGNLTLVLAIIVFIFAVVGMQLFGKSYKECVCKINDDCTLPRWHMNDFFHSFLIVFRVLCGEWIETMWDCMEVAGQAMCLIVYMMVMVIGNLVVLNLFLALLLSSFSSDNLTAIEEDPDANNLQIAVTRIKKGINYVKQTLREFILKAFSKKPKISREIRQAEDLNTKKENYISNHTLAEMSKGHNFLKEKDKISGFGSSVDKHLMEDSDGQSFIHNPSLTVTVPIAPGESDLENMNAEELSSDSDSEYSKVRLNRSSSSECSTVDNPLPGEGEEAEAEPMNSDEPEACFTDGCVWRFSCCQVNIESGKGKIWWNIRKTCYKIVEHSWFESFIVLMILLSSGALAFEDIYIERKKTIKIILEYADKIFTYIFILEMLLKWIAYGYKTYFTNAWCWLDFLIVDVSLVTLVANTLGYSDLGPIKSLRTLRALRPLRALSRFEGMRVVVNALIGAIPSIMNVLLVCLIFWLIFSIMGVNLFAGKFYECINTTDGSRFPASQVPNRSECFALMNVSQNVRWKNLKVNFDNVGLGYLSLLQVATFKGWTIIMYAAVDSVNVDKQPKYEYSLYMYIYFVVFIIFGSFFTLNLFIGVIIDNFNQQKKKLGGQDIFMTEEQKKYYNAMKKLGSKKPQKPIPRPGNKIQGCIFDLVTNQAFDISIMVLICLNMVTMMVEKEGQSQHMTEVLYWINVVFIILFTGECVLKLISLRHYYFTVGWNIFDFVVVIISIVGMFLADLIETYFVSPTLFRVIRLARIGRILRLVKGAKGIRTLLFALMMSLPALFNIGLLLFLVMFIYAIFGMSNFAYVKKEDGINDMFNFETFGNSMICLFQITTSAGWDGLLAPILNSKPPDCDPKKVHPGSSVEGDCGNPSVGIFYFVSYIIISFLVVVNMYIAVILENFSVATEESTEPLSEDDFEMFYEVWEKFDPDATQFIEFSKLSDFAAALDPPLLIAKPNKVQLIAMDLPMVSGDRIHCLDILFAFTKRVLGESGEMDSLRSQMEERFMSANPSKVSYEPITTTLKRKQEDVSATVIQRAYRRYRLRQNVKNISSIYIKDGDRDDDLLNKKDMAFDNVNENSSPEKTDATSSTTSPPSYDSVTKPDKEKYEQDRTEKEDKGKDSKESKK
Sequence of hNav1.3 (Q9NY46 whole entry, looked up): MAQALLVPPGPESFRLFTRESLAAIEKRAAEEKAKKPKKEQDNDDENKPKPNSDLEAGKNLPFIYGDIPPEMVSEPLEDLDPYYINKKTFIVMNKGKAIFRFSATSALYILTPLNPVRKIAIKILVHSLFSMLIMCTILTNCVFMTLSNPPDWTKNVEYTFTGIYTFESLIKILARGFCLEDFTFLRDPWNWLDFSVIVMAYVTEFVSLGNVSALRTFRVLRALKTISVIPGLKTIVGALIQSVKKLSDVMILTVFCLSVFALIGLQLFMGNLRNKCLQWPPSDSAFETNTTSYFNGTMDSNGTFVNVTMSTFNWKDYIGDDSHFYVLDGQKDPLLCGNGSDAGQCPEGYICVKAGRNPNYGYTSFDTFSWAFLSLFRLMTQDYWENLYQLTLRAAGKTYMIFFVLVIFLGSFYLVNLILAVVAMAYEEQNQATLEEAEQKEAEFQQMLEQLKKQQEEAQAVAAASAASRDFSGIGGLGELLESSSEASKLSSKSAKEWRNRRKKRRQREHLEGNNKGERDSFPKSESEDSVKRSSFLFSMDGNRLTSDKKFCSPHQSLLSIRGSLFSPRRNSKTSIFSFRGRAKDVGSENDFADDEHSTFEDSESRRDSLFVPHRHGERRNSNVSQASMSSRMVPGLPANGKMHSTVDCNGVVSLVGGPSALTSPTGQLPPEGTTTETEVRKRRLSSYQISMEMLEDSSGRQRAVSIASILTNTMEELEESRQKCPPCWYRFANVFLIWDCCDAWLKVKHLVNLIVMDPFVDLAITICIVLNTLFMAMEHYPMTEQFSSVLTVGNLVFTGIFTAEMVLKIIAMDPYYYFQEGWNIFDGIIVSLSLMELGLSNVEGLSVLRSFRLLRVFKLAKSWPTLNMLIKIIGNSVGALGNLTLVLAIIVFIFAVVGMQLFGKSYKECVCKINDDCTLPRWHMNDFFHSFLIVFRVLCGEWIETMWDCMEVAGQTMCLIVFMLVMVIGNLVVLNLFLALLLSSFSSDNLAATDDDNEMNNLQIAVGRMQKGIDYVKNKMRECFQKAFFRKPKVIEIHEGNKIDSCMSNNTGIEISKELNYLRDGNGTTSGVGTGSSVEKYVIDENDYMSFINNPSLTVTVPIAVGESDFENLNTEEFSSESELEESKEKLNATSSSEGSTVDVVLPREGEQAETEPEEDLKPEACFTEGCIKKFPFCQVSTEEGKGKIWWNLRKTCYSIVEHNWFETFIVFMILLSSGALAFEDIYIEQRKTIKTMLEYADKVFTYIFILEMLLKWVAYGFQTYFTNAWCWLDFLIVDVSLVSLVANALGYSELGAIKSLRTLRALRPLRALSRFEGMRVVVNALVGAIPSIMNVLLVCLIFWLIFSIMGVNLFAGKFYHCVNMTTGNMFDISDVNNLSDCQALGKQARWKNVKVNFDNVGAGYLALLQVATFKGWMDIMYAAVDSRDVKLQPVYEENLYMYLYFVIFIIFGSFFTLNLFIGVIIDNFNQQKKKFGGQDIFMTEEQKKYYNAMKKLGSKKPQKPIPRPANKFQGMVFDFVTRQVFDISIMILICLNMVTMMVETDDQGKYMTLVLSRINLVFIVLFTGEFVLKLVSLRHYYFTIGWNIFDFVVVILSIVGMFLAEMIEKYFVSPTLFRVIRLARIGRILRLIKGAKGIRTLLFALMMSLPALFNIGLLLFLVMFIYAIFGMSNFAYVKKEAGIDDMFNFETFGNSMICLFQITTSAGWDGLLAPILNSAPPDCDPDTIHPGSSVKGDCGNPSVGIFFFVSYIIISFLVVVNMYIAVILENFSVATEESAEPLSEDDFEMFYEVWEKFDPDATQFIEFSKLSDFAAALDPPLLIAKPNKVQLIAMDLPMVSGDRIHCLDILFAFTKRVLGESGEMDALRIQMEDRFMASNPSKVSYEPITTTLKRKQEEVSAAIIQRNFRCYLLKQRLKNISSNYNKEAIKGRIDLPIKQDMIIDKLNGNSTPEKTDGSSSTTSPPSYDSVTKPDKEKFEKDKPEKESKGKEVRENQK

On to `CC[C@H](C)[C@@H]1NC(=O)[C@@H]2CSSC[C@@H]3NC(=O)[C@H](C(C)C)NC(=O)[C@H](CC(C)C)NC(=O)[C@H](CC(N)=O)NC(=O)[C@@H]4CCCN4C(=O)[C@H](CCCNC(=N)N)NC(=O)[C@H](CSSC[C@H](NC(=O)[C@@H](N)CC(=O)O)C(=O)N[C@@H](CC(C)C)C(=O)NCC(=O)N[C@@H](Cc4ccccc4)C(=O)N[C@@H](CCSC)C(=O)N[C@@H](CCCNC(=N)N)C(=O)N[C@@H](CCCCN)C(=O)N2)NC(=O)[C@H](CSSC[C@@H](C(=O)N[C@@H](CCCCN)C(=O)N[C@@H](Cc2cn(C)c4ccccc24)C(=O)N[C@H](C(=O)N[C@@H](Cc2ccccc2)C(N)=O)C(C)C)NC(=O)[C@H](Cc2c[nH]c4ccccc24)NC(=O)[C@H](CCCCN)NC(=O)[C@H](Cc2c[nH]cn2)NC(=O)[C@H]([C@@H](C)O)NC(=O)[C@H](CCCNC(=N)N)NC(=O)[C@H](CO)NC3=O)NC(=O)[C@H](CCCCN)NC(=O)[C@H](CC(=O)O)NC(=O)[C@H](CC(N)=O)NC(=O)[C@H](CC(=O)O)NC(=O)[C@@H]2CCCN2C1=O` [compound 246] (H-DCLGFMRKCIPDNDKCCRPNLVCSRTHKWCK[Trp(1-Me)]VF-NH2; disulfide 2-17, 9-23, 16-30), for which the IC50 is 0.03 µM on hNav1.3 (Table 25, use, […]); 0.06 µM at hNav1.7 (Table 25, use, […]); 14.4 µM at hNav1.5 (Table 25, use, […]).

Regarding `CC[C@H](C)[C@H](NC(=O)[C@H](Cc1ccc(O)cc1)NC(=O)[C@H](CCCCN)NC(=O)[C@@H]1CSSC[C@@H]2NC(=O)[C@H](CCCCN)NC(=O)[C@H](CC(=O)O)NC(=O)[C@H](CC(N)=O)NC(=O)[C@H](CC(=O)O)NC(=O)[C@@H]3CCCN3C(=O)[C@H]([C@@H](C)CC)NC(=O)[C@@H]3CSSC[C@H](NC(=O)[C@H](C(C)C)NC(=O)[C@H](CC(C)C)NC(=O)[C@H](CC(N)=O)NC(=O)[C@@H]4CCCN4C(=O)[C@H](CCCNC(=N)N)NC(=O)[C@H](CSSC[C@H](NC(=O)[C@@H](N)CC(=O)O)C(=O)N[C@@H](CC(C)C)C(=O)NCC(=O)N[C@@H](Cc4ccccc4)C(=O)N[C@@H](CCSC)C(=O)N[C@@H](CCCNC(=N)N)C(=O)N[C@@H](CCCCN)C(=O)N3)NC2=O)C(=O)N[C@@H](CO)C(=O)N[C@@H](CCCNC(=N)N)C(=O)N[C@@H]([C@@H](C)O)C(=O)N[C@@H](Cc2c[nH]cn2)C(=O)N[C@@H](CCCCN)C(=O)N[C@@H](Cc2c[nH]c3ccccc23)C(=O)N1)C(=O)N[C@@H](Cc1ccccc1)C(N)=O` [compound 248] (H-DCLGFMRKCIPDNDKCCRPNLVCSRTHKWCKYIF-NH2; disulfide 2-17, 9-23, 16-30), the IC50 at hNav1.3 (Table 26, use, […]) amounted to 0.09 µM; on hNav1.7 (Table 26, use, […]) it was 0.15 µM; on hNav1.5 (Table 26, use, […]), 6.89 µM.

For the molecule `CC[C@H](C)[C@@H]1NC(=O)[C@@H]2CSSC[C@@H]3NC(=O)[C@H](C(C)C)NC(=O)[C@H](CC(C)C)NC(=O)[C@H](CC(N)=O)NC(=O)[C@@H]4CCCN4C(=O)[C@H](CCCNC(=N)N)NC(=O)[C@H](CSSC[C@H](NC(=O)[C@@H](N)CC(=O)O)C(=O)N[C@@H](CC(C)C)C(=O)NCC(=O)N[C@@H](Cc4ccccc4)C(=O)N[C@@H](CCSC)C(=O)N[C@@H](CCCNC(=N)N)C(=O)N[C@@H](CCCCN)C(=O)N2)NC(=O)[C@H](CSSC[C@@H](C(=O)N[C@@H](CCCCN)C(=O)N[C@@H](Cc2ccc(O)cc2)C(=O)N[C@@H](Cc2ccc(I)cc2)C(=O)N[C@@H](Cc2ccccc2)C(N)=O)NC(=O)[C@H](Cc2c[nH]c4ccccc24)NC(=O)[C@H](CCCCN)NC(=O)[C@H](Cc2c[nH]cn2)NC(=O)[C@H]([C@@H](C)O)NC(=O)[C@H](CCCNC(=N)N)NC(=O)[C@H](CO)NC3=O)NC(=O)[C@H](CCCCN)NC(=O)[C@H](CC(=O)O)NC(=O)[C@H](CC(N)=O)NC(=O)[C@H](CC(=O)O)NC(=O)[C@@H]2CCCN2C1=O` [compound 249] (H-DCLGFMRKCIPDNDKCCRPNLVCSRTHKWCKY[Phe(4-I)]F-NH2; disulfide 2-17, 9-23, 16-30), the IC50 stood at 0.06 µM at hNav1.3 (Table 26, use, […]); 0.09 µM on hNav1.7 (Table 26, use, […]); 7.78 µM on hNav1.5 (Table 26, use, […]).

As for `CC[C@H](C)[C@@H]1NC(=O)[C@@H]2CSSC[C@@H]3NC(=O)[C@H](C(C)C)NC(=O)[C@H](CC(C)C)NC(=O)[C@H](CC(N)=O)NC(=O)[C@@H]4CCCN4C(=O)[C@H](CCCNC(=N)N)NC(=O)[C@H](CSSC[C@H](NC(=O)[C@@H](N)CC(=O)O)C(=O)N[C@@H](CC(C)C)C(=O)NCC(=O)N[C@@H](Cc4ccccc4)C(=O)N[C@@H](CCSC)C(=O)N[C@@H](CCCNC(=N)N)C(=O)N[C@@H](CCCCN)C(=O)N2)NC(=O)[C@H](CSSC[C@@H](C(=O)N[C@@H](CCCCN)C(=O)N[C@@H](Cc2ccc(O)cc2)C(=O)N[C@@H](Cc2cn(C)c4ccccc24)C(=O)N[C@@H](Cc2ccccc2)C(N)=O)NC(=O)[C@H](Cc2c[nH]c4ccccc24)NC(=O)[C@H](CCCCN)NC(=O)[C@H](Cc2c[nH]cn2)NC(=O)[C@H]([C@@H](C)O)NC(=O)[C@H](CCCNC(=N)N)NC(=O)[C@H](CO)NC3=O)NC(=O)[C@H](CCCCN)NC(=O)[C@H](CC(=O)O)NC(=O)[C@H](CC(N)=O)NC(=O)[C@H](CC(=O)O)NC(=O)[C@@H]2CCCN2C1=O` [compound 250] (H-DCLGFMRKCIPDNDKCCRPNLVCSRTHKWCKY[Trp(1-Me)]F-NH2; disulfide 2-17, 9-23, 16-30), the IC50 on hNav1.3 (Table 26, use, […]) was 0.07 µM; at hNav1.7 (Table 26, use, […]) it was 0.09 µM; at hNav1.5 (Table 26, use, […]), 5.35 µM.

For the molecule `CC[C@H](C)[C@@H]1NC(=O)[C@@H]2CSSC[C@@H]3NC(=O)[C@H](C(C)C)NC(=O)[C@H](CC(C)C)NC(=O)[C@H](CC(N)=O)NC(=O)[C@@H]4CCCN4C(=O)[C@H](CCCNC(=N)N)NC(=O)[C@H](CSSC[C@H](NC(=O)[C@@H](N)CC(=O)O)C(=O)N[C@@H](CC(C)C)C(=O)NCC(=O)N[C@@H](Cc4ccccc4)C(=O)N[C@@H](CCSC)C(=O)N[C@@H](CCCNC(=N)N)C(=O)N[C@@H](CCCCN)C(=O)N2)NC(=O)[C@H](CSSC[C@@H](C(=O)N[C@@H](CCCCN)C(=O)N[C@@H](Cc2cccc4ccccc24)C(=O)N[C@H](C(=O)N[C@@H](Cc2ccccc2)C(N)=O)C(C)C)NC(=O)[C@H](Cc2c[nH]c4ccccc24)NC(=O)[C@H](CCCNC(=N)N)NC(=O)[C@H](Cc2c[nH]cn2)NC(=O)[C@H]([C@@H](C)O)NC(=O)[C@H](CCCNC(=N)N)NC(=O)[C@H](CO)NC3=O)NC(=O)[C@H](CCCCN)NC(=O)[C@H](CC(=O)O)NC(=O)[C@H](CC(N)=O)NC(=O)[C@H](CC(=O)O)NC(=O)[C@@H]2CCCN2C1=O` [compound 251] (H-DCLGFMRKCIPDNDKCCRPNLVCSRTHRWCK[1Nal]VF-NH2; disulfide 2-17, 9-23, 16-30), the IC50 was 0.002 µM on hNav1.3 (use-dependent block, hNav1.3); 0.005 µM on hNav1.7 (use-dependent block, hNav1.7); 2.56 µM on hNav1.5 (use-dependent block, hNav1.5).

Take `CC[C@H](C)[C@@H]1NC(=O)[C@@H]2CSSC[C@@H]3NC(=O)[C@H](C(C)C)NC(=O)[C@H](CC(C)C)NC(=O)[C@H](CC(N)=O)NC(=O)[C@@H]4CCCN4C(=O)[C@H](CCCNC(=N)N)NC(=O)[C@H](CSSC[C@H](NC(=O)[C@@H](N)CC(=O)O)C(=O)N[C@@H](CC(C)C)C(=O)NCC(=O)N[C@@H](C)C(=O)N[C@@H](CCSC)C(=O)N[C@@H](CCCNC(=N)N)C(=O)N[C@@H](CCCCN)C(=O)N2)NC(=O)[C@H](CSSC[C@@H](C(=O)N[C@@H](CCCCN)C(=O)N[C@@H](Cc2ccc(O)cc2)C(=O)N[C@@H](Cc2c[nH]c4ccccc24)C(=O)N[C@@H](Cc2ccccc2)C(N)=O)NC(=O)[C@H](Cc2c[nH]c4ccccc24)NC(=O)[C@H](CCCCN)NC(=O)[C@H](Cc2c[nH]cn2)NC(=O)[C@H]([C@@H](C)O)NC(=O)[C@H](CCCNC(=N)N)NC(=O)[C@H](CO)NC3=O)NC(=O)[C@H](CCCCN)NC(=O)[C@H](CC(=O)O)NC(=O)[C@H](CC(N)=O)NC(=O)[C@H](CC(=O)O)NC(=O)[C@@H]2CCCN2C1=O` [compound 252] (H-DCLGAMRKCIPDNDKCCRPNLVCSRTHKWCKYWF-NH2; disulfide 2-17, 9-23, 16-30): the IC50 amounted to 0.4 µM on hNav1.3 (use-dependent block, hNav1.3); 0.23 µM at hNav1.7 (use-dependent block, hNav1.7); 5 µM on hNav1.5 (use-dependent block, hNav1.5).

As to `CC[C@H](C)[C@@H]1NC(=O)[C@@H]2CSSC[C@@H]3NC(=O)[C@H](C(C)C)NC(=O)[C@H](CC(C)C)NC(=O)[C@H](CC(N)=O)NC(=O)[C@@H]4CCCN4C(=O)[C@H](CCCNC(=N)N)NC(=O)[C@H](CSSC[C@H](NC(=O)[C@@H](N)CC(=O)O)C(=O)N[C@@H](CC(C)C)C(=O)NCC(=O)N[C@@H](C)C(=O)N[C@@H](CCSC)C(=O)N[C@@H](CCCNC(=N)N)C(=O)N[C@@H](CCCCN)C(=O)N2)NC(=O)[C@H](CSSC[C@@H](C(=O)N[C@@H](CCCCN)C(=O)N[C@@H](Cc2c[nH]c4ccccc24)C(=O)N[C@H](C(=O)N[C@@H](Cc2ccccc2)C(N)=O)C(C)C)NC(=O)[C@H](Cc2c[nH]c4ccccc24)NC(=O)[C@H](CCCCN)NC(=O)[C@H](Cc2c[nH]cn2)NC(=O)[C@H]([C@@H](C)O)NC(=O)[C@H](CCCNC(=N)N)NC(=O)[C@H](CO)NC3=O)NC(=O)[C@H](CCCCN)NC(=O)[C@H](CC(=O)O)NC(=O)[C@H](CC(N)=O)NC(=O)[C@H](CC(=O)O)NC(=O)[C@@H]2CCCN2C1=O` [compound 253] (H-DCLGAMRKCIPDNDKCCRPNLVCSRTHKWCKWVF-NH2; disulfide 2-17, 9-23, 16-30), the IC50 at hNav1.3 (use-dependent block, hNav1.3) stood at 0.53 µM; on hNav1.7 (use-dependent block, hNav1.7), 0.27 µM; at hNav1.5 (use-dependent block, hNav1.5), 5 µM.
